Ke and IC50 data for ten compounds are collected here from ChEMBL document CHEMBL1124814 (J Med Chem, 1990).

The target in assay [1] is T1, Opioid receptor (Mus musculus) (UniProt P42866+P32300+P33534). Kind of assay: Opioid receptors antagonist activity in smooth-muscle tissue mouse vas deferens (MVD) in presence of ICI. Format: functional, tissue-based.
The target of assay [2] is T2, Opioid receptors; mu/kappa/delta (Homo sapiens, UniProt P41145+P41143+P35372). As to conditions: Cavia porcellus; Ileum.
T2 sequence (P35372 whole entry, looked up): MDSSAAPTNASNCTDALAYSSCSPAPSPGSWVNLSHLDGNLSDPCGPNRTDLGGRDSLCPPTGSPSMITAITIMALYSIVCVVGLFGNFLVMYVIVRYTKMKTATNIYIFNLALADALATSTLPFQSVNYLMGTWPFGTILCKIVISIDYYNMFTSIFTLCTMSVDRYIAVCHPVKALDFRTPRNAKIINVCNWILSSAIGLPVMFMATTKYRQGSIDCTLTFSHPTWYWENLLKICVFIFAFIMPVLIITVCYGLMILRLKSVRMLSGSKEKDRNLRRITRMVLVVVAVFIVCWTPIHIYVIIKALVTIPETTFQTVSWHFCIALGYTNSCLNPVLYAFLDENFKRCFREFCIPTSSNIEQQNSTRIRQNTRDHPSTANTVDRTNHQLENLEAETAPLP
T2 sequence (P41143 whole entry, looked up): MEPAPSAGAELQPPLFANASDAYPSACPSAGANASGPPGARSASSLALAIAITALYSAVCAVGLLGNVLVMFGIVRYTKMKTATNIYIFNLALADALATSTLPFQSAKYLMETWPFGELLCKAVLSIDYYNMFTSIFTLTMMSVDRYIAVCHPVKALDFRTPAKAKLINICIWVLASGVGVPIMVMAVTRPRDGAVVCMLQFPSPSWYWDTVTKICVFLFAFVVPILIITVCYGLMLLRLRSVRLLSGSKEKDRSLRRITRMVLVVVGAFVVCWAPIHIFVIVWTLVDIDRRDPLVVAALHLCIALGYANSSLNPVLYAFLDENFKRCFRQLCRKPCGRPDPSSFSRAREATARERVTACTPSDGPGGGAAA
T2 sequence (P41145 whole entry, looked up): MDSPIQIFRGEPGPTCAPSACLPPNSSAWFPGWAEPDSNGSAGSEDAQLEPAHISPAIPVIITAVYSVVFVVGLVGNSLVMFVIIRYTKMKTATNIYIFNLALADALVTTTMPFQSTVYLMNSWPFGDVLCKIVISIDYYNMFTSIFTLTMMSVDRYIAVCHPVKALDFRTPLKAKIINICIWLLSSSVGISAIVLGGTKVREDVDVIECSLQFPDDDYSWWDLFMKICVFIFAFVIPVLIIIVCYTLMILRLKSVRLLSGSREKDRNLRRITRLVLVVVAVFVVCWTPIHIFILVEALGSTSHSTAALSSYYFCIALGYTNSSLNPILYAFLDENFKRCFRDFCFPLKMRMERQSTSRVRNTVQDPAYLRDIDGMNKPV
Description: Opioid receptors antagonist activity in smooth-muscle tissue of guinea pig ileum (GPI) in presence of CTAP
Assay [3] has as its target Opioid receptor (Mus musculus, UniProt P42866+P32300+P33534). In words: Opioid receptors antagonist activity in smooth-muscle tissue mouse vas deferens (MVD). The assay is classed as functional, tissue-based.
The target of assay [4] is T1, Opioid receptor (Mus musculus). Kind of assay: Opioid receptors antagonist activity in smooth-muscle tissue mouse vas deferens (MVD) in presence of CTAP. Format: functional, tissue-based.
In assay [5] the target is T2, Opioid receptors; mu/kappa/delta. Kind of assay: Opioid receptors antagonist activity in smooth-muscle tissue of guinea pig ileum (GPI). The assay is classed as functional, tissue-based, Cavia porcellus. As to conditions: target entry is the homologue from another species.
In assay [6] the target is Kappa-type opioid receptor (Cavia porcellus, UniProt P41144). Kind of assay: Binding affinity against Opioid receptor kappa 1 in guinea pig brain homogenate using [3H]- U-69593 as radioligand. The assay is classed as tissue-based.
Chain of Kappa-type opioid receptor (P41144 whole entry): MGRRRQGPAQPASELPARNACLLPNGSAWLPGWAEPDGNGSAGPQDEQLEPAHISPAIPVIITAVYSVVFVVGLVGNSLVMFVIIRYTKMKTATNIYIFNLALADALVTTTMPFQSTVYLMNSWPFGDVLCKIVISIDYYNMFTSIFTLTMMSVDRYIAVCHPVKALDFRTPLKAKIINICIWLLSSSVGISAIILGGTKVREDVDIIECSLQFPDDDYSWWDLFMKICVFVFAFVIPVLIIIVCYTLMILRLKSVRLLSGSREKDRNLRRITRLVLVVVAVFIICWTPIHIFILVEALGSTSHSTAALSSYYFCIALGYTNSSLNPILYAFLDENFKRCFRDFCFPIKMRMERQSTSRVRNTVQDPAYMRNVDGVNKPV
Assay [7] addresses Mu-type opioid receptor (Cavia porcellus, UniProt P97266). Kind of assay: Binding affinity against Opioid receptor mu 1 in guinea pig brain homogenate using [3H]- PL-17 as radioligand. The assay is classed as tissue-based.
In assay [8] the target is T1, Opioid receptor (Mus musculus). In words: Opioid receptors antagonist activity in smooth-muscle tissue mouse vas deferens (MVD) in presence of NLX. The assay is classed as functional, tissue-based.
Assay [9] has as its target T2, Opioid receptors; mu/kappa/delta. The conditions noted are these: Cavia porcellus; Ileum. The source holds these as a separate data set.
Description: Opioid receptors antagonist activity in smooth-muscle tissue of guinea pig ileum (GPI) in presence of NLX

Each structure is given as a SMILES string. Positions of bridges follow the written chain, without caps; N, C: chain ends. Residues, ends and D or L forms follow the SMILES beside them.

Chain of Mu-type opioid receptor (P97266 whole entry): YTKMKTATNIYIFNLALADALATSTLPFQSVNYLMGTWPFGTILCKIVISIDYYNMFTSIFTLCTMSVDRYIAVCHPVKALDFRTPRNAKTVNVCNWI
T1 sequence (P32300 whole entry, looked up): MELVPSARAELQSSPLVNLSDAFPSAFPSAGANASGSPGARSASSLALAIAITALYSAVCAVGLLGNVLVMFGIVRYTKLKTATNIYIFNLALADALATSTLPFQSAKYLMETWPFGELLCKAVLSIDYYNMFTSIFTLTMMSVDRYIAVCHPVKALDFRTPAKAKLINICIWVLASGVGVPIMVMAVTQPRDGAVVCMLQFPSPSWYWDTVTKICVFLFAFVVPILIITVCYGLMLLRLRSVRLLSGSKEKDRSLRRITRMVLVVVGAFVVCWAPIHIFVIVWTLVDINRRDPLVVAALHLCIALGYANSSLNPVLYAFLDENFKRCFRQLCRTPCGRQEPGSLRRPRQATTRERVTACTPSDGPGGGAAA
T1 sequence (P33534 whole entry, looked up): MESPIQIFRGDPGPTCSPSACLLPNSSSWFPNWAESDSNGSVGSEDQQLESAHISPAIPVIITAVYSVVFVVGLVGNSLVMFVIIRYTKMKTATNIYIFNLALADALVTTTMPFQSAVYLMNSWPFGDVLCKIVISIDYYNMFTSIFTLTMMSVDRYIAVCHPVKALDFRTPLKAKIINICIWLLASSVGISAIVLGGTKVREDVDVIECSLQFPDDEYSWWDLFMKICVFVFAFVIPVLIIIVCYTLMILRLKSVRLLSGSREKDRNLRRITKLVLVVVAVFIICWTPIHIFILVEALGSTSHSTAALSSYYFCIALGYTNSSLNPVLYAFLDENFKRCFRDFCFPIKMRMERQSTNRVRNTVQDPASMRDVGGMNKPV
T1 sequence (P42866 whole entry, looked up): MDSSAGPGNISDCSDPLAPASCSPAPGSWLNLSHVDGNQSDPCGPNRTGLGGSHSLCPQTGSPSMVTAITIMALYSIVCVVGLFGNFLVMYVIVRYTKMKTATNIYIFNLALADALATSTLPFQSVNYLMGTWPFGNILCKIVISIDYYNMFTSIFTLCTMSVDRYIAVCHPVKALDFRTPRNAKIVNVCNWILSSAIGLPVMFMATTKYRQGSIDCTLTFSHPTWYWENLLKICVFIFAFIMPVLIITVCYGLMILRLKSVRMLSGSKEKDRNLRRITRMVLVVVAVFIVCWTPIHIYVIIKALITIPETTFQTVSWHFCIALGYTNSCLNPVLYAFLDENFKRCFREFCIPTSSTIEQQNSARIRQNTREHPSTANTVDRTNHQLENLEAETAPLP

As a reminder, the IC50 is the concentration that gives 50% inhibition. High values mean a need for much substance, low ones inhibition by little substance. For the compound `C[C@H]1NC(=O)[C@H](CCCN=C(N)N)NC(=O)[C@H](CCCN=C(N)N)NC(=O)[C@@H](NC(=O)[C@H](Cc2ccccc2)NC(=O)CNC(=O)CNC(=O)[C@@H](N)Cc2ccc(O)cc2)CSSC[C@@H](C(N)=O)NC(=O)[C@@H]2CCCN2C(=O)[C@H](CCCN=C(N)N)NC1=O`, the Ke turned out to be 21.3 nM in assay [1], 50 nM in assay [2] and 500 nM in [4]. Also, the concentration for half-maximal inhibition (IC50) in assay [3] came to 1660 nM; in assay [5], 4406 nM.
Take `CC[C@H](C)[C@H](NC(=O)[C@H](CCCNC(=N)N)NC(=O)[C@H](CCCNC(=N)N)NC(=O)[C@H](CC(C)C)NC(=O)[C@H](Cc1ccccc1)NC(=O)CNC(=O)CNC(=O)[C@@H](N)Cc1ccc(O)cc1)C(=O)N[C@@H](CCCNC(=N)N)C(=O)N1CCC[C@H]1C(=O)N[C@@H](CCCCN)C(=O)N[C@@H](CC(C)C)C(=O)N[C@@H](CCCCN)C(=O)N[C@@H](Cc1c[nH]c2ccccc12)C(=O)N[C@@H](CC(=O)O)C(=O)N[C@@H](CC(N)=O)C(=O)N[C@@H](CCC(N)=O)C(=O)O` [DYNORPHIN A (1-17)]: the half-maximal inhibitory concentration (IC50) in [6] came out at 0.231 nM.
As to `C[C@H]1NC(=O)[C@H](CCCNC(=N)N)NC(=O)[C@H](CCCNC(=N)N)NC(=O)[C@@H](NC(=O)[C@H](Cc2ccccc2)NC(=O)CNC(=O)CNC(=O)[C@@H](N)Cc2ccc(O)cc2)CSSC[C@@H](C(N)=O)NC(=O)[C@@H]2CCCN2C(=O)[C@H](CCCNC(=N)N)NC1=O`, the IC50 in assay [7] is 2.3 nM; in assay [6] it was 0.391 nM.
Turning to `CC(C)C[C@H](NC(=O)[C@H](Cc1ccccc1)NC(=O)CNC(=O)CNC(=O)[C@@H](N)Cc1ccc(O)cc1)C(=O)N[C@@H](CCCN=C(N)N)C(=O)N[C@@H](CCCN=C(N)N)C(=O)N[C@@H]1CSSC[C@H](C(N)=O)NC(=O)[C@H](CC(C)C)NC(=O)[C@H](CCCCN)NC(=O)[C@@H]2CCCN2C(=O)[C@H](CCCN=C(N)N)NC1=O`, the Ke came to 1000 nM in assay [1], 18.2 nM in assay [8], 1430 nM in assay [4] and 233 nM in [9]. In addition, the half-maximal inhibitory concentration (IC50) in assay [7] was determined as 0.362 nM; in assay [3] it was 19.5 nM; in [5], 1.75 nM.
`CC[C@H](C)[C@H](NC(=O)[C@H](CCCN=C(N)N)NC(=O)[C@H](CCCN=C(N)N)NC(=O)[C@H](CC(C)C)NC(=O)[C@H](Cc1ccccc1)NC(=O)CNC(=O)CNC(=O)[C@@H](N)Cc1ccc(O)cc1)C(=O)N[C@@H](CCCN=C(N)N)C(=O)N1CCC[C@H]1C(=O)N[C@@H](CCCCN)C(=O)N[C@@H](CC(C)C)C(=O)N[C@@H](CCCCN)C(N)=O`: the Ke was found to be 2000 nM in [2], 100 nM in assay [8] and 82 nM in [9]. Further, the IC50 in assay [7] worked out at 1.29 nM; in assay [3] it was 7.8 nM; in [6] it was 0.114 nM; in assay [5], 1.7 nM.
As to `CC(C)C[C@@H]1NC(=O)[C@H](CCCCN)NC(=O)[C@@H]2CCCN2C(=O)[C@H](CCCN=C(N)N)NC(=O)[C@H](NC(=O)[C@H](CCCN=C(N)N)NC(=O)[C@H](CCCN=C(N)N)NC(=O)[C@H](CC(C)C)NC(=O)[C@H](Cc2ccccc2)NC(=O)CNC(=O)CNC(=O)[C@@H](N)Cc2ccc(O)cc2)CSSC[C@@H](C(N)=O)NC1=O`, the Ke was 667 nM in [1], 30.3 nM in [8], 370 nM in assay [4] and 32.3 nM in [9]. Besides, the IC50 was 24.5 nM in assay [3] and 2.27 nM in assay [5].
With `CC[C@H](C)[C@H](NC(=O)[C@H](CCCN=C(N)N)NC(=O)[C@H](CCCN=C(N)N)NC(=O)[C@H](CC(C)C)NC(=O)[C@H](Cc1ccccc1)NC(=O)CNC(=O)CNC(=O)[C@@H](N)Cc1ccc(O)cc1)C(=O)N[C@@H](CCCN=C(N)N)C(=O)N1CCC[C@H]1C(=O)N[C@@H](CCCCN)C(N)=O`, the Ke in assay [1] came to 625 nM; in assay [8] it was 125 nM. For the same compound, the IC50 stood at 1.08 nM in [7], 204 nM in [3] and 7.5 nM in assay [5].
As for `CC(C)C[C@@H]1NC(=O)[C@H](CCCCN)NC(=O)[C@@H]2CCCN2C(=O)[C@H](CCCN=C(N)N)NC(=O)[C@@H](NC(=O)[C@H](CCCN=C(N)N)NC(=O)[C@H](CCCN=C(N)N)NC(=O)[C@H](CC(C)C)NC(=O)[C@H](Cc2ccccc2)NC(=O)CNC(=O)CNC(=O)[C@@H](N)Cc2ccc(O)cc2)CSSC[C@@H](C(N)=O)NC1=O`, the Ke in assay [1] stood at 156 nM; in assay [8] it was 95.2 nM; in assay [4], 175 nM; in assay [9], 38.9 nM. Moreover, the concentration for half-maximal inhibition (IC50) was determined as 0.986 nM in assay [7], 20.1 nM in assay [3], 0.074 nM in assay [6] and 1.3 nM in [5].
`CC(C)C[C@@H]1NC(=O)[C@H](CCCCN)NC(=O)[C@@H]2CCCN2C(=O)[C@H](CCCNC(=N)N)NC(=O)[C@H](NC(=O)[C@H](CCCNC(=N)N)NC(=O)[C@H](CCCNC(=N)N)NC(=O)[C@H](CC(C)C)NC(=O)[C@H](Cc2ccccc2)NC(=O)CNC(=O)CNC(=O)[C@@H](N)Cc2ccc(O)cc2)CSSC[C@@H](C(N)=O)NC1=O`: the IC50 in assay [7] amounted to 10.3 nM; in [6], 1.76 nM.
As to `CC[C@H](C)[C@@H]1NC(=O)[C@H](CCCN=C(N)N)NC(=O)[C@H](CCCN=C(N)N)NC(=O)[C@@H](NC(=O)[C@H](Cc2ccccc2)NC(=O)CNC(=O)CNC(=O)[C@@H](N)Cc2ccc(O)cc2)CSSC[C@@H](C(N)=O)NC(=O)[C@@H]2CCCN2C(=O)[C@H](CCCN=C(N)N)NC1=O` (H-YGGFCRRIRPC-NH2; disulfide 5-11), the Ke in [1] was 86.2 nM; in assay [8] it was 80 nM; in assay [4], 2000 nM; in assay [9], 66.7 nM. Also, the IC50 in [7] was determined as 0.027 nM; in assay [3] it was 421 nM; in assay [6] it was 0.285 nM; in assay [5], 1080 nM.
